Reference: patent US20230048338A1, “NOVEL CELLULAR DELIVERY METHODS” (PYC Therapeutics Limited, priority 2019, published 2023)

How the values were obtained:
Smn gene exon 7 = experiment: In vivo Smn efficacy assay (IVT administration), exon-7 skipping in ocular tissues; details: mouse; for Percent exon7-skipped SMN1 transcript (± SD): intravitreal 1.6 ug per eye
From the text: The in vitro SMN1 efficacy assay described in Example 1 is equally applicable to the in vivo setting, given the ubiquitous distribution of the Smn gene in the mouse body, Smn being the mouse orthologue of the human SMN1. The use of natural L-peptides is undesirable in the in vivo setting, due to presence of a vast array of proteases in the body. To adequately assess the peptide's cell-penetrating capacity, peptides were synthesized as either mixed-L/D amino acid containing peptides, where all basic residues were D-amino acids, or as full-D amino acid containing peptides. Both approaches have been established to protect peptides from proteolytic degradation during systemic administration into animals.
The ability of CPP-PMOs to deliver the Smn cargo in vivo to the RPE cell later in the eye was assessed by administration into the vitreous humor of mice and measuring the change in Smn transcript levels in the retina, RPE and choroid cell layers after 5, 7, 21 and 28 days. The CPP of the present invention (SEQ ID NO: 1) and control CPP Pip6a (SEQ ID NO: 3), conjugated to an Smn PMO (SEQ ID NO: 2), were administered by intravitreal injection at 1.6 ug (0.5 ul volume) per eye. At the desired time point post treatment, the animals were culled and eyes were dissected, tissue layers homogenised and RNA extracted using the same protocol as per Example 1.
The efficiency of delivery and function to the various organs was determined by measuring the change in Smn RNA transcript from full-length to an exon-7 skipped fragment (D7-Smn) RNA transcript, using RNA extraction, cDNA generation and PCR using Smn-specific primers. Efficiency was interpreted by the higher the percentage D7-Smn transcript, the better the delivery to the tissue by the CPP.
Exon skipping assays and RT-PCR detection were performed according to published protocols (Mann et al 2002, Gene Med, 4, 644-654).
Mice (C576/6; age 7 weeks) were sourced from Australian BioResources (ABR). Selected CPP-PMOs were injected into the vitreous at 1.6 ug (0.5 ul) per eye, with one to three mice per treatment group.
48 h post-treatment, mice were culled, and the following ocular tissues harvested; retina, RPE layer or RPE/choroid combined. The tissues were homogenised, and RNA was obtained using commercial RNA extraction kits according to manufacturer's protocol (Bio-Rad Aurum total RNA 96 kit; Quantify RNA yield; Quant-iT RNA BR kit).
(§1) Extracted RNA was purified, quantified and then diluted to 10 ng/ul. cDNA was produced using a commercial reverse transcription kit according to the manufacturers protocol (BioRad iScript). The produced cDNA was used as a template with primers designed to amplify region of interest, to amplify the DNA. The efficacy of exon skipping was determined by quantifying full length (FL Smn) and exon-7 skipped fragment (D7-Smn) of the Smn gene (LC-GX Nucleic Acid Analyzer) and calculating a percentage. The higher the percentage of D7-Smn DNA, the greater the CPP delivery efficiency.

GFAP = GFAP in vivo toxicity assay (ddPCR of Gfap mRNA after intravitreal injection); details: 5 days, mouse; for GFAP score (± SD): intravitreal 1.6 ug per eye, Gfap mRNA normalised to housekeeping genes
From the text: Glial fibrillary acidic protein (GFAP) is an intermediate-filament cytoskeletal protein. Levels of GFAP are strongly influenced by injury or stress in some cell types and GFAP expression has become an important marker of injury in the central nervous system. In the eye, Muller glia cells normally express low levels of GFAP which increases considerably following retinal injury.
Expression of GFAP mRNA was quantified via amplification of cDNA obtained as part of the in vivo Smn efficacy assay described above. ddPCR was performed using BioRad droplet generator and reader (QX200 DG8) and thermocyclers (T100), specific probes for murine Gfap (dMmuCPE5116126) and housekeeping genes Gapdh, Eef1a1 and Rp127 (dMmuCPE5195283, dMmuCPE5101732 and dMmuCPE5197083) as well as ddPCR Master mix for Probes (#1863024) and other ddPCR specific consumables from BioRad (#1863005, 12001925, 1863004, 1864007).
Assay results were obtained by BioRad ddPCR software in copies/uL. This was then normalised to housekeeping genes for comparison across experiments.

ARPE-19 cells = experiment: In vitro SMN1 viability assay (CellTiter-Glo); format: cell-based; details: for Percent Mean Viability (± SD): 48 h
Description: (§2) Cells were seeded in 96-well plates (ARPE-19, 4×10^3 cells/well) in complete medium (DMEM/F12 1:1, 10% FCS; 10 mM HEPES, 1× GlutaMAX™, Pen/Strep 100 u/ml; Gibco, Thermo Fisher Scientific, Waltham, Mass., USA). Cells were incubated overnight (37° C., 5% CO2) to allow for cell adherence. On the day of the assay, media was aspirated and replaced with CPP-PMO or PMO only diluted in treatment media (DMEM/F12 1:1, 10% FCS; 10 mM HEPES, 1× GlutaMAX™, Pen/Strep 100 u/ml; Gibco, Thermo Fisher Scientific, Waltham, Mass., USA) at various concentrations (32, 16, 8, 4, 2, and 1 uM), followed by incubation (37° C., 5% CO2) for 24 h. Fresh media 1:1 was added the following day and cells returned to the incubator for a further 24 h.
48 h post-treatment, viability of the cells was measured using the commercial CellTiter-Glo® Luminescent Cell Viability Assay (Promega, Australia). In brief the CellTiter-Glo reagent lyses the cells and generates a luminescent signal that is proportional to the amount of ATP present, which in turn is directly proportional to the number of live cells present in culture. All assays were conducted with a known cytotoxic agent, melittin (Renata et al. 2007), and cell only control. Cell viability was used to determine the level of toxicity caused by the CPP-PMO conjugates, where high viability equates to low toxicity, and low viability with high toxicity, respectively.

exon 7 of the SMN1 gene = experiment: In vitro SMN1 efficacy assay (exon-7 skipping, ARPE-19 cells); format: cell-based, human; details: for Percent exon7-skipped SMN1 transcript (± SD): 48 h post treatment
Description: Potential CPP peptides were linked to a […] that targets exon 7 of the SMN1 gene (Flynn et al 2018), using strain-promoted (SPAAC) click chemistry (Agard et al 2004, Dommerholt et al. 2016). Peptide-PMO conjugates were incubated on ARPE-19 cells for 2 days in full media. Efficacy of internalization was measured by the degree of exon7 skipping in the SMN1 gene RNA transcript through RNA extraction. Peptide-PMOs with % d7 transcript higher than the PMO treatment alone were considered CPPs.
Using the SMN1 gene, we built an exon-skipping assay targeting the SMN1 gene (Flynn et al 2018) at exon-7 using a phosphorodiamidate morpholino oligonucleotide (PMO) conjugated to different CPPs. This assay was used to identify CPPs that could efficiently deliver PMO cargo to the nucleus and effect exon-skipping of SMN1. Efficiency of delivery and function was determined by measuring the change in D7-SMN1 RNA transcript, using RNA extraction, cDNA generation and PCR using SMN1-specific primers. Efficiency was interpreted by the higher the percentage D7-SMN1 transcript, the better the delivery to the nucleus by the CPP.
Exon skipping assays and PCR detection were performed according to published protocols (Mann et al 2002, Gene Med, 4, 644-654).
Retinal pigment epithelial cells (ARPE-19) immortalized cells were treated with various concentrations (4 uM, 2 uM, 1 uM, in duplicate) of CPP-PMO conjugate and SMN1 transcript levels assessed 48 h post treatment by RNA extraction and purification, followed by cDNA generation and PCR.
as §2, with “24-well” for “96-well”, “2.5×10^4” for “4×10^3”, “USA),” for “USA) at various concentrations (32, 16, 8, 4, 2, and 1 uM),”
48 h post-treatment, the cell media was carefully aspirated, and cells rinsed with PBS. RNA from the treated cells was obtained using commercial RNA extraction kits according to manufacturer's protocol (Bio-Rad Aurum total RNA 96 kit; Quantify RNA yield; Quant-iT RNA BR kit).
as §1, with “SMN1)” for “Smn)”, “(D7-SMN1)” for “(D7-Smn)”, “SMN1” for “Smn”, “D7-SMN1” for “D7-Smn”, “efficiency” for “efficiency.”

Substance	Percent exon7-skipped SMN1 transcript (± SD) (Smn gene exon 7; RPE/choroid, 5 days)	Percent exon7-skipped SMN1 transcript (± SD) (Smn gene exon 7; RPE/choroid, 7 days)	Percent exon7-skipped SMN1 transcript (± SD) (Smn gene exon 7; retina, 5 days)	Percent exon7-skipped SMN1 transcript (± SD) (Smn gene exon 7; retina, 28 days)	GFAP score (± SD) (GFAP)	Percent Mean Viability (± SD) (ARPE-19 cells; 2 uM)	Percent Mean Viability (± SD) (ARPE-19 cells; 4 uM)	Percent Mean Viability (± SD) (ARPE-19 cells; 8 uM)	Percent Mean Viability (± SD) (ARPE-19 cells; 16 uM)	Percent Mean Viability (± SD) (ARPE-19 cells; 32 uM)	Percent exon7-skipped SMN1 transcript (± SD) (exon 7 of the SMN1 gene; 1 uM)	Percent exon7-skipped SMN1 transcript (± SD) (exon 7 of the SMN1 gene; 2 uM)	Percent exon7-skipped SMN1 transcript (± SD) (exon 7 of the SMN1 gene; 4 uM)	Truncated D7-Smn transcript in vivo compared with Smn PMO alone (in words) (Smn gene exon 7; intravitreal, RPE/choroid and retina)	GFAP expression in vivo (in words) (GFAP; intravitreal)	Cell viability relative to PMO alone (less deleterious) (ARPE-19 cells; 32 uM for 48 hours)	Efficiency in inducing SMN1 exon-skipping relative to SMN1 PMO only treatment (exon 7 of the SMN1 gene; 2 uM)
ACTTTCCTTCTTTTTTATTTTGTCT (PMO, 5' cyclooctyne handle, chemistry not fully specified; listed as Homo sapiens) [SEQ ID NO: 2, phosphorodiamidate morpholino oligonucleotide (PMO) targeting exon 7 of SMN1, with 5' cyclooctyne handle; unconjugated cargo control]	0.00%	0.00%	0.00%	0.77%	0.0262	99.41%	100.01%	99.11%	97.42%	93.61%	16.59 (± 4.07) Percent	17.35 (± 4.97) Percent	18.34 (± 5.99) Percent				
RXRRBRRXRYQFLIRXRBRXRB[azk]ACTTTCCTTCTTTTTTATTTTGTCT [SEQ ID NO: 3[azk]2]	9.94%	6.70%	21.66%	3.39%	0.1637												
rrsrtaraGrpGrnssrpsapr[azk]ACTTTCCTTCTTTTTTATTTTGTCT (chain 1 RRSRTARAGRPGRNSSRPSAPR; chain 2 actttccttcttttttattttgtct; azidolysine SPAAC click linkage; listed as Homo sapiens) [SEQ ID NO: 1[azk]2]	13.05%	12.22%	19.61%	13.71%	0.0324	102.61%	105.23%	103.34%	102.52%	98.20%	19.44 (± 3.82) Percent	21.38 (± 2.10) Percent	29.99 (± 3.96) Percent	creates more truncated D7-Smn transcript than the Smn PMO alone	very little GFAP expression	1.05 fold	1.2 fold
